This is an account of results in US20030186967A1, “Acylresorcinol derivatives are selective vitronectin receptor inhibitors” (American Home Products Corporation, priority 1998, published 2003).

In the assay the target is T1, Vitronectin receptor αVβ3 (Homo sapiens, UniProt P05106+P06756).
T1 construct: expressed in transfected cells; host or cells: 512P5 cells (plasma membrane preparation)
Kind of assay: Vitronectin Receptor αVβ3 Binding Assay. The following applies: read-out: VnR (IC50μM).

T1 sequence (P06756 31-889 limits assumed): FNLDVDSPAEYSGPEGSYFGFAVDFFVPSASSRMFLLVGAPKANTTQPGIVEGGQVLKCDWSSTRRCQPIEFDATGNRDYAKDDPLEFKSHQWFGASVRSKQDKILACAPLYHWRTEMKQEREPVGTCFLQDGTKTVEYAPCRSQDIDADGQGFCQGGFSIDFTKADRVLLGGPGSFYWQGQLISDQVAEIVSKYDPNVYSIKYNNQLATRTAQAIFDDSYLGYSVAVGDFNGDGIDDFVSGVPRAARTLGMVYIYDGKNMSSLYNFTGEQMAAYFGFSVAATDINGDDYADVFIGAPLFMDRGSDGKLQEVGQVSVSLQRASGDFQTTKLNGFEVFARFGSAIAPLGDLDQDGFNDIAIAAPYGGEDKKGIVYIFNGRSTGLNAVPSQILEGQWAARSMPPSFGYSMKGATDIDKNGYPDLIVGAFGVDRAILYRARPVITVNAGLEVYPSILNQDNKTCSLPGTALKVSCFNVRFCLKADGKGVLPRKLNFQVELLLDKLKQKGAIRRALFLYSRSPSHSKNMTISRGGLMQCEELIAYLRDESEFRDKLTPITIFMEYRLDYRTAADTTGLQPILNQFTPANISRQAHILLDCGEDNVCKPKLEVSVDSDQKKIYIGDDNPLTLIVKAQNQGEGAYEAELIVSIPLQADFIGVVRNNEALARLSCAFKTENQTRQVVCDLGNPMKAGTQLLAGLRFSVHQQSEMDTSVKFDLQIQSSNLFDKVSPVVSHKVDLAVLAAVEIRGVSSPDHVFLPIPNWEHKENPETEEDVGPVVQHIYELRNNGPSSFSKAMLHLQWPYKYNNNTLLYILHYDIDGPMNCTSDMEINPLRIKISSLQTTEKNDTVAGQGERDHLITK
T1 sequence (P06756 891-1048 partner limits assumed): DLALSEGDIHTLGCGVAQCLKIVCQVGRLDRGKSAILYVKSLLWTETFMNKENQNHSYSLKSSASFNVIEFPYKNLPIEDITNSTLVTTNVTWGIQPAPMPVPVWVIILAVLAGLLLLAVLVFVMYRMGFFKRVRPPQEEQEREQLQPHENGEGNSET
T1 sequence (P05106 27-788): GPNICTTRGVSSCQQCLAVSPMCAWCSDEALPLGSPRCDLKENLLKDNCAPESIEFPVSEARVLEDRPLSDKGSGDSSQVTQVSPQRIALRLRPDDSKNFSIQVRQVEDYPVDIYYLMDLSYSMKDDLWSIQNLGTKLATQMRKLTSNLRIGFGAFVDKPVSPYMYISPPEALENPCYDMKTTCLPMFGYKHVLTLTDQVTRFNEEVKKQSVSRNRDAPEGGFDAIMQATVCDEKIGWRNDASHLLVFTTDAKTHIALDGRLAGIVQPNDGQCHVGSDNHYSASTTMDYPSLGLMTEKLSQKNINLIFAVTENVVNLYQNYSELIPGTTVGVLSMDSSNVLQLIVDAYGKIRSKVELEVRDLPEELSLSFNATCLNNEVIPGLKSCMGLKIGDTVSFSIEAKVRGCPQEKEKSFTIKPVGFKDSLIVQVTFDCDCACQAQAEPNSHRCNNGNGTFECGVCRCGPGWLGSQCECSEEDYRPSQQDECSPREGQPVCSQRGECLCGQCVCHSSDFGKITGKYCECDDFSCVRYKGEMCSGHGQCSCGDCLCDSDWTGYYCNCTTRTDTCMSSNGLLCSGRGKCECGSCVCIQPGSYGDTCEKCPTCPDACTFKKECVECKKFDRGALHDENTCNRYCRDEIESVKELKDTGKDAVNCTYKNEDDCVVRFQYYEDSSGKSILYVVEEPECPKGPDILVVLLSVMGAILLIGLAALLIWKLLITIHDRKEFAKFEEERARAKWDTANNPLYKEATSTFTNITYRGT

For `CCCCOC(=O)N[C@@H](CNC(=O)c1ccc(OCCNC(=O)NCc2ccccc2)cc1O)C(=O)O` [Example 231, (2S)-3-{[4-(2-{[(benzylamino)carbonyl]amino}ethoxy)-2-hydroxybenzoyl]amino}-2-[(butoxycarbonyl)amino]propanoic acid], the IC50 is 6.7 µM.
With `C=CCCOC(=O)N[C@@H](CNC(=O)c1ccc(OCCNc2ncccn2)cc1O)C(=O)O` [Example 70, (2S)-2-{[(but-3-enyloxy)carbonyl]amino}-3-({2-hydroxy-4-[2-(pyrimidin-2-ylamino)ethoxy]benzoyl}amino)propanoic acid], the IC50 stood at 100 µM.
As to `CCCOC(=O)N[C@@H](CNC(=O)c1ccc(OCCNC(=O)NCc2cccnc2)cc1O)C(=O)O` [Example 236], the IC50 was determined as 1.9 µM.
The same measure for `C#CCOC(=O)N[C@@H](CNC(=O)c1ccc(OCCNC(=O)NCc2ccccc2)cc1O)C(=O)O` [Example 227, (2S)-3-{[4-(2-{[(benzylamino)carbonyl]amino}ethoxy)-2-hydroxybenzoyl]amino}-2-{[(prop-2-ynyloxy)carbonyl]amino}propanoic acid]: 5.1 µM.
The same measure for `C=CCCOC(=O)N[C@@H](CNC(=O)c1ccc(OCCNC(=N)N)cc1O)C(=O)O` [Example 163, (2S)-3-{[4-(2-{[amino(imino)methyl]amino}ethoxy)-2-hydroxybenzoyl]amino}-2-{[(but-3-enyloxy)carbonyl]amino}propanoic acid]: 1.1 µM; for `CCCCCCCCOC(=O)N[C@@H](CNC(=O)c1ccc(OCCNc2ncccn2)cc1O)C(=O)O` [Example 58, (2S)-3-({2-hydroxy-4-[2-(pyrimidin-2-ylamino)ethoxy]benzoyl}amino)-2-{[(octyloxy)carbonyl]amino}propanoic acid]: 100 µM.
For the compound `COc1ccccc1C(=O)N[C@@H](CNC(=O)c1ccc(OCCNC(=N)N)cc1O)C(=O)O` [Example 205, (2S)-3-{[4-(2-{[amino(imino)methyl]amino}ethoxy)-2-hydroxybenzoyl]amino}-2-[(2-methoxybenzoyl)amino]propanoic acid], the IC50 was above 1 µM.
Regarding “(2S)-3-({2-hydroxy-4-[2-(pyrimidin-2-ylamino)ethoxy]benzoyl3 amino)-2-{[(4-methoxyanilino)carbonyl]amino}propanoic acid [Example 74]”, the IC50 is above 1 µM.
In the case of `NS(=O)(=O)c1ccc(CNC(=O)NCCOc2ccc(C(=O)NC[C@H](NC(=O)OCc3ccccc3)C(=O)O)c(O)c2)cc1` [Example 265, (2S)-3-[(4-{2-[({[4-(aminosulfonyl)benzyl]amino}carbonyl)amino]ethoxy}-2-hydroxybenzoyl)amino]-2-{[(benzyloxy)carbonyl]amino}propanoic acid], the IC50 was determined as 12.9 µM.
As to `O=C(N[C@@H](CNC(=O)c1ccc(OCCNC2=NCCCN2)cc1O)C(=O)O)OCC(Cl)(Cl)Cl` [Example 10, (2S)-3-({2-hydroxy-4-[2-(1,4,5,6-tetrahydropyrimidin-2-ylamino)ethoxy]-benzoyl}amino)-2-{[(2,2,2-trichloroethoxy)carbonyl]amino}propanoic acid], the IC50 turned out to be 0.061 µM.
With `CCOC(=O)N[C@@H](CNC(=O)c1ccc(OCCNC(=O)NCc2cccnc2)cc1O)C(=O)O` [Example 235, (2S)-2-[(ethoxycarbonyl)amino]-3-({2-hydroxy-4-[2-({[(pyridin-3-ylmethyl)amino]-carbonyl}amino)ethoxy]benzoyl}amino)propanoic acid], the IC50 stood at 3 µM.
`O=C(NCCOc1ccc(C(=O)NC[C@H](NC(=O)OCC(Cl)(Cl)Cl)C(=O)O)c(O)c1)NCc1cccnc1` [Example 244, (2S)-3-({2-hydroxy-4-[2-({[(pyridin-3-ylmethyl)amino]carbonyl}amino)-ethoxy]benzoyl}amino)-2-{[(2,2,2-trichloroethoxy)carbonyl]amino}propanoic acid]: the IC50 was determined as 1.6 µM.
In the case of `CCCCCCOC(=O)N[C@@H](CNC(=O)c1ccc(OCCNc2ncccn2)cc1O)C(=O)O` [Example 62, (2S)-2-{[(hexyloxy)carbonyl]amino}-3-({2-hydroxy-4-[2-(pyrimidin-2-ylamino)-ethoxy]benzoyl}amino)propanoic acid], the IC50 amounted to 100 µM.
On to `O=C(NCCOc1ccc(C(=O)NC[C@H](NC(=O)OCC(Cl)(Cl)Cl)C(=O)O)c(O)c1)NCc1ccccc1` [Example 230, (2S)-3-{[4-(2-{[(benzylamino)carbonyl]amino}ethoxy)-2-hydroxybenzoyl]amino}-2-{[(2,2,2-trichloroethoxy)carbonyl]amino}propanoic acid], for which the IC50 came out at 4 µM.
Regarding `CC(C)COC(=O)N[C@@H](CNC(=O)c1ccc(OCCNC2=NCCCN2)cc1O)C(=O)O` [Example 12, (2S)-3-({2-hydroxy-4-[2-(1,4,5,6-tetrahydropyrimidin-2-ylamino)ethoxy]benzoyl}-amino)-2-[(isobutoxycarbonyl)amino]propanoic acid], the IC50 stood at 0.0661 µM.
As for `C=CCCOC(=O)N[C@@H](CNC(=O)c1ccc(OCCNC(=O)NCc2ccccc2)cc1O)C(=O)O` [Example 226, (2S)-3-{[4-(2-{[(benzylamino)carbonyl]amino}ethoxy)-2-hydroxybenzoyl]amino}-2-{[(but-3-enyloxy)carbonyl]amino}propanoic acid], the IC50 amounted to 5.2 µM.
`COC(=O)N[C@@H](CNC(=O)c1ccc(OCCNC2=NCCN2)cc1O)C(=O)O` [Example 97, (2S)-3-({4-[2-(4,5-dihydro-1H-imidazol-2-ylamino)ethoxy]-2-hydroxybenzoyl}-amino)-2-[(methoxycarbonyl)amino]propanoic acid]: the IC50 amounted to 0.77 µM.
Turning to `CCCCCCCCOC(=O)N[C@@H](CNC(=O)c1ccc(OCCNC(=O)NCc2ccccc2)cc1O)C(=O)O` [Example 229, (2S)-3-{[4-(2-{[(benzylamino)carbonyl]amino}ethoxy)-2-hydroxybenzoyl]amino}-2-{[(octyloxy)carbonyl]amino}propanoic acid], the IC50 was determined as 17.1 µM.
The same measure for `N=C(N)NCCOc1ccc(C(=O)NC[C@H](NC(=O)CC2CCCCC2)C(=O)O)c(O)c1` [Example 201, (2S)-3-{[4-(2-{[amino(imino)methyl]amino}ethoxy)-2-hydroxybenzoyl]amino}-2-[(2-cyclohexylacetyl)amino]propanoic acid]: 13.2 µM; for `N=C(N)NCCOc1ccc(C(=O)NC[C@H](NC(=O)c2ccncc2)C(=O)O)c(O)c1` [Example 210, (2S)-3-{[4-(2-{[amino(imino)methyl]amino}ethoxy)-2-hydroxybenzoyl]amino}-2-(isonicotinoylamino)propanoic acid]: above 1 µM; for `O=C(NCCOc1ccc(C(=O)NC[C@H](NC(=O)OCc2ccccc2)C(=O)O)c(O)c1)NCc1ccccc1` [Example 220, (2S)-3-{[4-(2-{[(benzylamino)carbonyl]amino}ethoxy)-2-hydroxybenzoyl]amino}-2-{[(benzyloxy)carbonyl]amino}propanoic acid]: 8.8 µM.
Consider `O=C(N[C@@H](CNC(=O)c1ccc(OCCNC2=NCCN2)cc1O)C(=O)O)OCc1ccccc1` [Example 96, (2S)-2-{[(benzyloxy)carbonyl]amino}-3-({4-[2-(4,5-dihydro-1H-imidazol-2-ylamino)ethoxy]-2-hydroxybenzoyl}amino)propanoic acid], for which the IC50 turned out to be 0.119 µM.
For `Cc1ccccc1NC(=O)N[C@@H](CNC(=O)c1ccc(OCCNC(=N)N)cc1O)C(=O)O` [Example 173, (2S)-3-{[4-(2-{[amino(imino)methyl]amino}ethoxy)-2-hydroxybenzoyl]amino}-2-[(2-toluidinocarbonyl)amino]propanoic acid], the IC50 was 4.28 µM.
Turning to `N=C(N)NCCOc1ccc(C(=O)NC[C@H](NC(=O)c2cccnc2)C(=O)O)c(O)c1` [Example 209, (2S)-3-{[4-(2-{[amino(imino)methyl]amino}ethoxy)-2-hydroxybenzoyl]amino}-2-[(pyridin-3-ylcarbonyl)amino]propanoic acid], the IC50 was above 1 µM.
For `O=C(Nc1ccc(Cl)cc1)N[C@@H](CNC(=O)c1ccc(OCCNc2ncccn2)cc1O)C(=O)O` [Example 86, (2S)-2-{[(4-chloroanilino)carbonyl]amino}-3-({2-hydroxy-4-[2-(pyrimidin-2-ylamino)ethoxy]benzoyl}amino)propanoic acid], the IC50 was above 1 µM.
Take `C=CCOC(=O)N[C@@H](CNC(=O)c1ccc(OCCNC2=NCCN2)cc1O)C(=O)O` [Example 101, (2S)-2-{[(allyloxy)carbonyl]amino}-3-({4-[2-(4,5-dihydro-1H-imidazol-2-ylamino)-ethoxy]-2-hydroxybenzoyl}amino)propanoic acid]: the IC50 is 0.094 µM.
In the case of `CC(C)OC(=O)N[C@@H](CNC(=O)c1ccc(OCCNC2=NCCN2)cc1O)C(=O)O` [Example 100, (2S)-3-({4-[2-(4,5-dihydro-1H-imidazol-2-ylamino)ethoxy]-2-hydroxybenzoyl}-amino)-2-[(isopropoxycarbonyl)amino]propanoic acid], the IC50 was found to be 0.079 µM.
The same measure for `N=C(N)NCCOc1ccc(C(=O)NC[C@H](NC(=O)NCCc2ccccc2)C(=O)O)c(O)c1` [Example 186]: 6.99 µM.
Consider `O=C(NCCOc1ccc(C(=O)NC[C@H](NC(=O)OCc2ccccc2)C(=O)O)c(O)c1)NCc1ccccn1` [Example 272, (2S)-2-{[(benzyloxy)carbonyl]amino}-3-({2-hydroxy-4-[2-({[(pyridin-2-ylmethyl)-amino]carbonyl}amino)ethoxy]benzoyl}amino)propanoic acid], for which the IC50 came out at 10.6 µM.
On to `CCCCCC(=O)N[C@@H](CNC(=O)c1ccc(OCCNC(=N)N)cc1O)C(=O)O` [Example 192, (2S)-3-{[4-(2-{[amino(imino)methyl]amino}ethoxy)-2-hydroxybenzoyl]amino}-2-(hexanoylamino)propanoic acid], for which the IC50 was above 1 µM.
With `O=C(NCCc1ccccc1)N[C@@H](CNC(=O)c1ccc(OCCNC2=NCCN2)cc1O)C(=O)O` [Example 117, (2S)-3-({4-[2-(4,5-dihydro-1H-imidazol-2-ylamino)ethoxy]-2-hydroxybenzoyl}-amino)-2-({[(2-phenylethyl)amino]carbonyl}amino)propanoic acid], the IC50 amounted to 1.52 µM.
